This is an account of results in patent publication US20020168365A1, “Method for modulating granzyme B uptake and for identifying modulators thereof” (priority 2000, published 2002).

Assay [1] has as its system Jurkat cells. Briefly: TUNEL and annexin V apoptosis assays with grB and AD. The format is cell-based, human. The method, then: (§1) GrB was treated for 1 hr at 37° C. in a phosphate-free (saline) or a high-phosphate (64.5 mM Na2HPO4.7H2O, 21 mM KH2PO4) buffer with calf intestinal alkaline phosphatase (1-10 U), 20 nM of the 37 kDa catalytic subunit of recombinant protein phosphatase-1 (Bagu et al, 1997), or with vehicle control. Cells were then incubated with the treated grB at 4° C. for 30-60 min. For the TUNEL or annexin V assays, cells were then washed twice before incubation at 37° C. with AD.
(§2) M6P and various other monosaccharides at different concentrations were added to cells for 15 min at 4° C. before the addition of labeled grB, or at room temperature before the addition of grB and AD.
(§3) GrB was incubated with sCI-MPR at various concentrations in PBS/0.1% BSA for 30 min at 4° C. Subsequently, cells were incubated with grB/sCI-MPR for 30-60 min at 4° C. and washed twice, before analysis of binding, or before the addition of AD for TUNEL and annexin V analysis.
(§4) For the in vitro killing assays, 10 pfu per cell of replication-deficient adenovirus (AD) were added subsequent to grB addition. Analysis of DNA fragmentation by TUNEL analysis has been described previously (Heibein et al., 1999). TUNEL materials (Roche Diagnostics) were used as per the manufacturer's instructions. Phosphatidylserine externalization was measured as previously described (Heibein et al., 1999) using annexin V-FITC (PharMingen). Percent specific TUNEL/annexin V positive cells was calculated as: [(% positive labeling cells with grB and AD-% positive labeling cells without grB and AD)/(100-% positive labeling cells without grB and AD)]×100.
Cells were resuspended at 10^6 cells/ml in 0.1% BSA/DMEM. Adenovirus (10 PFU/cell) and granzyme B (grB) were added directly to the cell suspension. Cells were incubated at 37° C. for 3 h. For staurosporine killing, cells were resuspended at 10^6 cells/ml in their normal growth medium and staurosporine (2.5 μM) was added directly to the cell suspension. Cells were incubated at 37° C. for 2, 4 and 8 h.
(§5) DNA fragmentation was monitored by flow cytometric analysis via the terminal deoxynucleotidyltransferase-mediated dUTP-biotin nick end labeling (TUNEL) method. Flow cytometric analysis was performed on a Becton Dickinson FACScanθ flow cytometer equipped with an argon-ion laser with 15 mW of excitation at 488 nm. Emission wavelengths were detected through the FL1 channel. Data were acquired on 10,000 cells per sample with light scatter signals at linear gain and fluorescence signals at logarithmic gain. Percent specific TUNEL positive cells was calculated as follows: [(% positive labeling cells with grB and AD−% positive labeling cells without grB and AD)/(AD−% positive labeling cells without grB and AD)]×100.
as §5, with “Phosphatidylserine externalization” for “DNA fragmentation”, “monitored using the ApoAlertθ annexin V apoptosis kit (Clontech) according to the protocol provided” for “monitored”, “by” for “by flow cytometric analysis via”, “manufacturer.” for “terminal deoxynucleotidyltransferase-mediated dUTP-biotin nick end labeling (TUNEL) method.”, “Annexin V” for “TUNEL”

The next assay has as its system CI-MPR^+ cells. The assay is described as above. It is filed as cell-based, murine L cells transfected with human CI-MPR. The protocol:
as §4

Assay [2] relates to Jurkat cells. The experiment in a line: GrB binding assay (flow cytometry, labeled grB at 4° C.). Also noted: species or system human. The protocol:
(§6) Cells (1-2×10^5) were washed twice and resuspended in buffer before the addition of grB-biotin or -OG in a final volume of 20 μl for a 30-60 min incubation and washed again twice. In the case of grB-biotin, cells were then incubated with streptavidin-cychrome for 20 min and washed twice. Unless otherwise indicated, ˜25 ng grB-biotin or -OG was used to label cells. All steps of the assay were carried out at 4° C. to prevent intracellular uptake of grB. PBS/0.1% BSA buffer was used throughout the procedure. In some cases, results are presented as the relative MFI, which represents the MFI of the grB-labeled population minus the MFI of the unlabeled population.
as §1, §2, §3

For another assay, the system named is procaspase-3. Briefly: Caspase 3 cleavage by Western blotting. The format is cell-based, human. The note with it: grB (18 nM) and AD, 3 hr. The method, then:
Cells were resuspended at 10^6 cells/ml in 0.1% BSA/DMEM. Adenovirus (10 PFU/cell) and granzyme B (grB) were added directly to the cell suspension. Cells were incubated at 37° C. for 3 h. For staurosporine killing, cells were resuspended at 10^6 cells/ml in their normal growth medium and staurosporine (2.5 μM) was added directly to the cell suspension. Cells were incubated at 37° C. for 2, 4 and 8 h. Cellular lysates were collected by directly harvesting 10^5 cells into 100 μl of sodium dodecyl sulfate-polyacrylamide gel electrophoresis (SDS-PAGE) gel loading buffer and subjected to SDS-PAGE analysis. Proteins were transferred to nitrocellulose (Micron Separations Inc.) by using a semidry transfer apparatus (Tyler Corp.) for 1 h at 150 mA. Membranes were blocked in phosphate-buffered saline (PBS) containing 0.1% Tween 20 (ICN Biomedicals Inc.) and 5% skim milk for 16 h. Caspase 3 was detected using polyclonal rabbit anti-caspase 3 at a dilution of 1:10,000. The membrane was incubated with the primary antibody for 2 h, after which the blot was washed three times in PBS containing 0.1% Tween 20. The membranes were probed with a horseradish peroxidase-conjugated goat anti-rabbit secondary antibody (Bio-Rad Laboratories) at a 1:20,000 dilution. Transferred proteins were visualized with a chemiluminescence detection system (Amersham Inc.).
On the technique in general: Immunoblotting shows a protein as a band on a membrane.

Assay [3] relates to L cells and the MPR-transfected L cell lines. Briefly: GrB binding assay (flow cytometry). Also noted: species or system murine. Particulars: grB treated with alkaline phosphatase in the absence of phosphate. The method, then: as §6, §1
Where [4] appears, read: grB treated with catalytic subunit of protein phosphatase-1 (data not shown).

On to “grB: Human serine proteinase granzyme B purified from the cytolytic granules of YT-Indy cells”, for which the “percentage of TUNEL/annexin V positive cells” value with Jurkat cells [1] (Jurkat cells incubated with only grB (no AD)) is “under 8%”. The “TUNEL and annexin V labeling” value with Jurkat cells [1] (Jurkat cells, 3 hr, varying concentrations of grB and AD (Example 2)) was “significant TUNEL and annexin V labeling”. The “ability to induce apoptosis of Jurkat cells” value in the assay with Jurkat cells [1] (setting [4]) is listed as “did not lose”. Further, the “concentration sufficient to elicit effective Jurkat cell killing” value in the assay on Jurkat cells [1] (granule-purified grB with AD (FIG. 3C)) is “less than 1 ng/ml”. The “TUNEL and annexin V positive cells” value with CI-MPR^+ cells (at later times (data not shown)) was about 100%; with CI-MPR^+ cells (at the time-point of the assay (3 hr)) it was “about 30%”. In addition, the “ability to bind Jurkat cells” value in the assay on Jurkat cells [2] (setting [4]) was “did not lose”; in the assay with Jurkat cells [2] (grB-biotin treated with alkaline phosphatase in phosphate-free buffer), “marked reduction”. Moreover, the “cleavage of procaspase-3” value is given as “able to observe cleavage” in the assay with procaspase-3 (Jurkat cells), “unable to observe any cleavage” in the assay with procaspase-3 (MDA-MB-231 cells), “unable to observe any cleavage” with procaspase-3 (SK-BR-3 cells) and “able to observe cleavage” with procaspase-3 (T47-D cells). The “binding to L cells and the MPR-transfected L cell lines” value in assay [3] is “dramatic decrease in binding”.
